For series [1], the system named is Reconstituted Human Oral Epithelium (RHO) colonized with S. Aureus. Nature of the series: Biofilm formation by TEER on colonized RHO. It counts as cell-based. The protocol: (§1) Immediately after the arrival in the laboratory, the RHO was removed from the agarose nutrient solution under a sterile airflow cabin. The inserts were rapidly placed in a 6-well plate previously filled with 1 ml of the maintenance medium […] at room temperature. The wells were placed in an incubator at 37° C., 5% CO2 and saturated humidity overnight.
(§2) The protocol was performed on duplicate tissues for bacterial burden and on single tissue for further morphological analysis (SEM, H&E).
(§3) S. aureus MRSA ATCC 33591 was thawed and cultured in nutrient broth at 37° C., under agitation.
(§4) 30 μL of intermediate molecular weight hyaluronic acid solution (0.2% w/v) or of chlorhexidine (CHL) 0.2% (positive control), respectively, were topically applied to RHO samples, and incubated for 24 h. Then, the product residual volume was removed by a micropipette from the epithelium surface.
The RHO samples were then colonized with S. Aureus bacterial suspensions (O.D. 0.1 about 10^6 UFC/tissue), which was applied topically for 4 h. After 4 h, the remaining S. aureus solution was removed and RHO tissue samples were incubated for 16 h at 37° C., 5% CO2. […]
TEER was measured as described hereafter: 0.5 ml of physiological saline solution was directly applied on the tissue placed in a 6-well plate containing 5 ml of saline solution as well. […]

The test system of series [2] is S. aureus MRSA ATCC 33591. The experiment in a line: Biofilm formation by bacterial count on colonized RHO. The format is cell-based, Staphylococcus aureus. The procedure: as §1, §2, §3, §4
(§5) The RHO samples were then colonized with S. Aureus bacterial suspensions (O.D. 0.1 about 10^6 UFC/tissue), which was applied topically for 4 h. After 4 h, the remaining S. aureus solution was removed and RHO tissue samples were incubated for 16 h at 37° C., 5% CO2.
The samples for this assessment were prepared according to the procedure of example 5.
In order to perform the bacterial count on apical, basolateral and homogenate compartments, the following procedure was used: • For the basolateral compartment: 1 ml of culture medium from each well was sampled. • For the apical compartment, the samples from the TEER measurement according to example 6 were used: Each sample contained 500 μl of physiological saline solution. These samples were moved to a new 6-well plate that had been previously filled with 2 ml/well of saline solution and put in a sonicator bath for 7 minutes at 40 kHz. After sonication, 500 μl of saline solution were sampled for the apical compartment and the RHO tissues were rinsed twice with 200 μl of saline solution. The total amount of solution (900 μl) was then pooled together to obtain the harvested apical compartment. • For the homogenate compartment: a sterile scalpel blade has been used to harvest tissues from the insert and to place them in an Eppendorf tube containing 500 μL of 0.5% Triton X-100 solution prepared in sterile distilled water for at least 10 minutes.
Bacterial counts of the three compartments were performed on Nutrient Agar plates, plating the appropriate 10-fold dilutions (from the not diluted to 10-7) of each compartment suspension (one 10 μl drop for each dilution). After 1 day of incubation at 37° C., the colonies were numbered visually.

Series [3] concerns Reconstituted Human Oral Epithelium (RHO). Nature of the series: Re-epithelization after injury by scanning electronic microscopy. The format is cell-based. The settings on record: T24h after injury; for film forming on the tissue surface: high molecular weight 0.2%, FIG. 6; for tissue repair / wound recovery seen by SEM: low 0.5%, intermediate 0.2%, high 0.2%, magnification 10000x, FIGS. 4-6. The protocol:
Experiments were performed on Reconstituted Human Oral Epithelium (RHO). Immediately after the arrival in the laboratory, the RHO was removed from the agarose nutrient solution under a sterile airflow cabin. The inserts were rapidly placed in a 6-well plate previously filled with 1 ml of the maintenance medium at room temperature. The wells were placed in an incubator at 37° C., 5% CO2 and saturated humidity overnight. On the next day, an injury was performed with a glass capillary. The RHO samples were then treated with a solution containing hyaluronic acid having low (20-50 kDa), intermediate (100-300 kDa) or high (1,000-1,400 kDa) molecular weight. Untreated RHO was used as a control without treatment. The RHO samples for this assessment were prepared according to the procedure of example 1. 24 h after treatment with hyaluronic acid, the samples for scanning electronic microscopy (SEM) were immediately fixed by immersion in 2.5% glutaraldehyde in phosphate buffered saline (PBS) for 24 h, washing in 0.1 M sodium cacodylate buffer, pH 7.4, and then carried out in 1% osmium tetraoxide (OsO4) in the same buffer (2 h at room temperature). The samples were dehydrated in ascending grades of ethanol at room temperature and Hexamethyldisilazane overnight. The samples were placed on pins with carbon tabs, coated with a layer of gold using a Polaron Equipment limited SEM coating unit […], and then transferred to a SEM Zeiss Sigma Electron Microscope for viewing and photography. Magnification of 10000× was performed.

Series [4] shares this test system. The experiment in a line: Re-epithelization after injury by TEER (trans epithelial electrical resistance). The conditions noted are these: 24 h after treatment; RHO injured with glass capillary; vs control not treated after injury; FIG. 1. It counts as cell-based. The procedure:
Experiments were performed on Reconstituted Human Oral Epithelium (RHO).
Immediately after the arrival in the laboratory, the RHO was removed from the agarose nutrient solution under a sterile airflow cabin. The inserts were rapidly placed in a 6-well plate previously filled with 1 ml of the maintenance medium at room temperature. The wells were placed in an incubator at 37° C., 5% CO2 and saturated humidity overnight.
On the next day, an injury was performed with a glass capillary.
The RHO samples were then treated with a solution containing hyaluronic acid having low (20-50 kDa), intermediate (100-300 kDa) or high (1,000-1,400 kDa) molecular weight. Untreated RHO was used as a control without treatment.
(§6) The RHO samples for this assessment were prepared according to the procedure of example 1.
24 h after the treatment with hyaluronic acid, the trans epithelial electric resistance (TEER) was measured as follows:
0.5 ml of physiological saline solution was directly applied on the tissue placed in a 6-well plate containing 5 ml of saline solution as well. The two electrodes of a Millicell-ERS Voltohmmeter (range 0-20 kΩ) were placed were placed in two compartments on either side of the tissue, such that the electric flux passed through the tissue. The result of the measurement directly appeared on the display. […]

The subject of series [5] is S. aureus MRSA ATCC 33591. The experiment in a line: Biofilm visualization by scanning electronic microscopy. The format is cell-based, Staphylococcus aureus. The settings on record: 100-300 kDa, 0.2% w/v, colonization with S. Aureus, after 4 h. The protocol: as §1, §2, §3, §4, §5
The samples for this experiment were prepared according to the procedure of example 5.
After treatment, samples for SEM were immediately fixed by immersion in 2.5% gluteraldehyde in PBS. […]

The test system of series [6] is Integrin beta 1 (ITGB1). The experiment in a line: Re-epithelization after injury by immunohistochemistry on Integrin B1. The format is cell-based, human. The conditions noted are these: injured RHO, vs injured control, FIG. 7. The procedure:
as §6
At the end of the exposures (at least overnight), the tissue samples were fixed in buffered 10% formalin. Samples were included in paraffin blocks and sections of 5 μm were prepared. These slides were stained with Haematoxilin and Eosin.
The used technique allows for visualization of a specific protein or antigen in cells or tissue sections by binding a specific antibody chemically conjugated with a fluorescent dye. The indirect immunofluorescence staining is a procedure, in which a secondary antibody labelled with a fluorochrome is used to recognize a primary antibody. Immunofluorescence staining can be performed on cells fixed on slides and tissue sections. Immunofluorescence stained samples are examined under a fluorescence microscope or confocal microscope.
INTEGRIN (ITGB1): Mouse monoclonal antibody anti-Integrin beta 1 (Abcam, ab3167) diluted at 2 μg/ml for a 2 h incubation at room temperature in 1% BSA in PBS; and the secondary antibody in Alexa Fluor 488 goat anti-mouse (Invitrogen, A10680). The nuclei were stained with Dapi.
The slices were examined under a Leica DM 2500 FLUO microscope and analyzed by Leica LAS software.

The test system of series [7] is ZO-1. Nature of the series: Re-epithelization after injury by immunohistochemistry on ZO-1. It counts as cell-based, human. The settings on record: injured RHO, vs injured control; FIG. 7. The procedure:
The RHO samples for this assessment were prepared according to the procedure of example 1. At the end of the exposures (at least overnight), the tissue samples were fixed in buffered 10% formalin. Samples were included in paraffin blocks and sections of 5 μm were prepared. These slides were stained with Haematoxilin and Eosin. The used technique allows for visualization of a specific protein or antigen in cells or tissue sections by binding a specific antibody chemically conjugated with a fluorescent dye. The indirect immunofluorescence staining is a procedure, in which a secondary antibody labelled with a fluorochrome is used to recognize a primary antibody. Immunofluorescence staining can be performed on cells fixed on slides and tissue sections. Immunofluorescence stained samples are examined under a fluorescence microscope or confocal microscope. […] ZO-1: Rabbit polyclonal antibody anti-ZO-1 (Invitrogen, 61-7300), diluted at 5 μg/ml for an overnight incubation at 4° C. in 1% bovine serum albumin (BSA) in PBS; and the secondary antibody in Alexa Fluor 555 donkey anti-rabbit (Invitrogen, A31572). The nuclei were stained with (4′,6-diamidino-2-phenylindole) (Dapi). The slices were examined under a Leica DM 2500 FLUO microscope and analyzed by Leica LAS software.

Where two headings read alike, the source gives them in different places.

Turning to `[H]/N=C(\N/C(=N/[H])NCCCCCCNC(=N)NC(=N)Nc1ccc(Cl)cc1)Nc1ccc(Cl)cc1` [CHL, chlorhexidine, reference compound], the “TEER (barrier function) of colonized RHO” value in series [1] (0.2% applied 24 h before colonization with S. Aureus for 4 h, then 16 h incubation, FIG. 8) is “TEER decreased”. For the same compound, the “bacterial count, result in words” value in series [2] (0.2% applied 24 h before colonization with S. Aureus, FIGS. 9 and 10) was “strong bactericidal property”.
Turning to “hyaluronic acid [high molecular weight hyaluronic acid]”, the “film forming on the tissue surface” value in series [3] is reported as “film forming was observed”; in series [3] (listed as hyaluronic acid of high molecular weight) it was “forming a film on the skin surface”. Also, the “tissue repair / wound recovery seen by SEM” value in series [3] is listed as “significantly less advanced”.
With “hyaluronic acid [intermediate molecular weight hyaluronic acid]”, the “TEER (barrier function) after injury” value in series [4] is recorded as “improved the barrier function after an injury”. In addition, in series [1], the “TEER (barrier function) of colonized RHO” value was “did not affect TEER”. For the same compound, the “polysaccharide matrix (biofilm formation) by SEM” value in series [5] (FIG. 13) is reported as “No polysaccharide matrix is visible”. The “colonies in cluster by SEM” value in series [5] (FIG. 13 vs FIG. 12) is on record as “less colonies are in cluster”. Further, the “tissue repair / wound recovery seen by SEM” value in series [3] was “active process of tissue repair”. In addition, in series [2] (0.2% w/v applied 24 h before colonization with S. Aureus, FIG. 9), the “decrease of the bacterial count, apical compartment” value is reported as “about 50%”. In addition, in series [2] (0.2% w/v applied 24 h before colonization with S. Aureus, FIG. 10), the “decrease of the bacterial count, homogenate compartment” value is recorded as “about 50%”. Moreover, the “total bacterial count (bacterial proliferation)” value in series [2] (summary of examples 5-9) is reported as −50%. For the same compound, in series [6] (listed as hyaluronic acid of intermediate molecular weight), the “Integrin beta 1 expression (immunofluorescence)” value is “over-expression of integrin beta 1 exclusively”.
Consider “hyaluronic acid [low molecular weight hyaluronic acid]”, for which, in series [4], the “TEER (barrier function) after injury” value was “improved the barrier function after an injury”. In series [7], the “ZO-1 expression (immunofluorescence)” value is recorded as “induced an over-expression”. Further, the “tissue repair / wound recovery seen by SEM” value in series [3] was “led to a recovery of the wound”. In series [6], the “Integrin beta 1 expression (immunofluorescence)” value is “induced an over-expression”.

(Values after patent publication US20210393503A1, “ORGANIC COMPOUNDS” (GIVAUDAN SA, priority 2017, published 2021).)
